Measured values as given in the supplement of paper PMC10307832.

Tests used:
Test in all cases: relative viability (nuclei count vs DMSO), 5 days (fraction); higher = more cells survive
[1] = compound: CC1=NN=C(O1)C2=NN=C(C=C2)N3CCC(CC3)OC4=C(C=CC(=C4)F)Cl + CCNC(=O)c1noc(-c2cc(C(C)C)c(O)cc2O)c1-c1ccc(CN2CCOCC2)cc1 [Luminespib] (partner 0.01 µM)
In short: (§1)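 After 5 days of treatment, lung cancer cells in 1536-well plates were fixed and stained in a single step (final 0.05% Triton X-100, 1% formaldehyde, 1 ug/ml Hoechst) and their nuclei counted on 4× images. Treatment had been applied by pin tool the day after seeding as one drug alone or as a fixed anchor-drug dose with five library-drug doses (not always all listed) in √10 steps. Relative viability is the nuclei count of treated wells divided by that of vehicle wells, and values are medians of duplicate plates.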

[2] = compound: CC(C)C[C@@H](C(=O)N[C@H](C(=O)OC1CCCC1)c1ccccc1)[C@H](O)C(=O)NO [Tosedostat] + Nc1ncn([C@H]2C[C@H](O)[C@@H](CO)O2)c(=O)n1 [Decitabine] (partner 2 µM)
In short: as §1

[3] = compound: CC(C)C[C@@H](C(=O)N[C@H](C(=O)OC1CCCC1)c1ccccc1)[C@H](O)C(=O)NO [Tosedostat] + CC(C)C[C@H](NC(=O)[C@H](Cc1ccccc1)NC(=O)c1cnccn1)B(O)O [Bortezomib] (partner 0.002 µM)
In short: as §1

[4] = compound: CC1=NN=C(O1)C2=NN=C(C=C2)N3CCC(CC3)OC4=C(C=CC(=C4)F)Cl + Cc1nc(Nc2ncc(C(=O)Nc3c(C)cccc3Cl)s2)cc(N2CCN(CCO)CC2)n1 [Dasatinib] (partner 0.075 µM)
In short: as §1

Cell Line: HCC-44
- relative viability ([1]; first compound 0.253 µM): 0.739
- relative viability ([1]; first compound 0.8 µM): 0.812
- relative viability ([1]; first compound 2.53 µM): 0.725
- relative viability ([1]; first compound 8 µM): 0.731
- relative viability ([2]; first compound 0.02 µM): 0.941
- relative viability ([2]; first compound 0.06325 µM): 0.919
- relative viability ([2]; first compound 0.2 µM): 0.943
- relative viability ([2]; first compound 0.6325 µM): 0.865
- relative viability ([2]; first compound 2 µM): 0.747
- relative viability ([3]; first compound 0.02 µM): 0.886
- relative viability ([3]; first compound 0.06325 µM): 0.883
- relative viability ([3]; first compound 0.2 µM): 0.937
- relative viability ([3]; first compound 0.6325 µM): 0.793
- relative viability ([3]; first compound 2 µM): 0.459

Cell Line: HCC-78
- relative viability ([4]; first compound 0.253 µM): 0.413
- relative viability ([4]; first compound 0.8 µM): 0.302
- relative viability ([4]; first compound 2.53 µM): 0.341
- relative viability ([4]; first compound 8 µM): 0.244
- relative viability ([2]; first compound 0.02 µM): 0.634
- relative viability ([2]; first compound 0.06325 µM): 0.706
- relative viability ([2]; first compound 0.2 µM): 0.732
- relative viability ([2]; first compound 0.6325 µM): 0.75
- relative viability ([2]; first compound 2 µM): 0.658
- relative viability ([3]; first compound 0.02 µM): 0.496
- relative viability ([3]; first compound 0.06325 µM): 0.497
- relative viability ([3]; first compound 0.2 µM): 0.473
- relative viability ([3]; first compound 0.6325 µM): 0.555
- relative viability ([3]; first compound 2 µM): 0.563

Cell Line: HCC-366
- relative viability ([4]; first compound 0.253 µM): 0.292
- relative viability ([4]; first compound 0.8 µM): 0.375
- relative viability ([4]; first compound 2.53 µM): 0.471
- relative viability ([4]; first compound 8 µM): 0.361
- relative viability ([2]; first compound 0.02 µM): 0.332
- relative viability ([2]; first compound 0.06325 µM): 0.369
- relative viability ([2]; first compound 0.2 µM): 0.397
- relative viability ([2]; first compound 0.6325 µM): 0.311
- relative viability ([2]; first compound 2 µM): 0.359
- relative viability ([3]; first compound 0.02 µM): 1.05
- relative viability ([3]; first compound 0.06325 µM): 1.03
- relative viability ([3]; first compound 0.2 µM): 1.03
- relative viability ([3]; first compound 0.6325 µM): 1.07
- relative viability ([3]; first compound 2 µM): 1.04

Cell Line: HCC-827
- relative viability ([4]; first compound 0.253 µM): 0.374
- relative viability ([4]; first compound 0.8 µM): 0.235
- relative viability ([4]; first compound 2.53 µM): 0.357
- relative viability ([4]; first compound 8 µM): 0.256
- relative viability ([1]; first compound 0.253 µM): 0.428
- relative viability ([1]; first compound 0.8 µM): 0.228
- relative viability ([1]; first compound 2.53 µM): 0.349
- relative viability ([1]; first compound 8 µM): 0.339
- relative viability ([2]; first compound 0.02 µM): 0.317
- relative viability ([2]; first compound 0.06325 µM): 0.331
- relative viability ([2]; first compound 0.2 µM): 0.289
- relative viability ([2]; first compound 0.6325 µM): 0.26
- relative viability ([2]; first compound 2 µM): 0.314
- relative viability ([3]; first compound 0.02 µM): 1.1
- relative viability ([3]; first compound 0.06325 µM): 1.04
- relative viability ([3]; first compound 0.2 µM): 1.07
- relative viability ([3]; first compound 0.6325 µM): 1
- relative viability ([3]; first compound 2 µM): 1.01

Cell Line: HOP-62
- relative viability ([4]; first compound 0.253 µM): 0.571
- relative viability ([4]; first compound 0.8 µM): 0.633
- relative viability ([4]; first compound 2.53 µM): 0.606
- relative viability ([4]; first compound 8 µM): 0.6
- relative viability ([1]; first compound 0.253 µM): 0.63
- relative viability ([1]; first compound 0.8 µM): 0.638
- relative viability ([1]; first compound 2.53 µM): 0.697
- relative viability ([1]; first compound 8 µM): 0.634
- relative viability ([2]; first compound 0.02 µM): 0.227
- relative viability ([2]; first compound 0.06325 µM): 0.203
- relative viability ([2]; first compound 0.2 µM): 0.258
- relative viability ([2]; first compound 0.6325 µM): 0.159
- relative viability ([2]; first compound 2 µM): 0.186
- relative viability ([3]; first compound 0.02 µM): 0.719
- relative viability ([3]; first compound 0.06325 µM): 0.931
- relative viability ([3]; first compound 0.2 µM): 0.805
- relative viability ([3]; first compound 0.6325 µM): 0.526
- relative viability ([3]; first compound 2 µM): 0.498

Cell Line: IA-LM
- relative viability ([3]; first compound 0.02 µM): 0.854
- relative viability ([3]; first compound 0.06325 µM): 0.731
- relative viability ([3]; first compound 0.2 µM): 0.814
- relative viability ([3]; first compound 0.6325 µM): 0.848
- relative viability ([3]; first compound 2 µM): 0.735

Cell Line: LK-2
- relative viability ([4]; first compound 0.253 µM): 0.393
- relative viability ([4]; first compound 0.8 µM): 0.458
- relative viability ([4]; first compound 2.53 µM): 0.504
- relative viability ([4]; first compound 8 µM): 0.428
- relative viability ([1]; first compound 0.253 µM): 0.2
- relative viability ([1]; first compound 0.8 µM): 0.159
- relative viability ([1]; first compound 2.53 µM): 0.176
- relative viability ([1]; first compound 8 µM): 0.182
- relative viability ([2]; first compound 0.02 µM): 0.305
- relative viability ([2]; first compound 0.06325 µM): 0.306
- relative viability ([2]; first compound 0.2 µM): 0.237
- relative viability ([2]; first compound 0.6325 µM): 0.262
- relative viability ([2]; first compound 2 µM): 0.272

Cell Line: NCI-H358
- relative viability ([4]; first compound 0.253 µM): 0.199
- relative viability ([4]; first compound 0.8 µM): 0.196
- relative viability ([4]; first compound 2.53 µM): 0.19
- relative viability ([4]; first compound 8 µM): 0.188
- relative viability ([1]; first compound 0.253 µM): 0.287
- relative viability ([1]; first compound 0.8 µM): 0.176
- relative viability ([1]; first compound 2.53 µM): 0.177
- relative viability ([1]; first compound 8 µM): 0.207
- relative viability ([2]; first compound 0.02 µM): 0.238
- relative viability ([2]; first compound 0.06325 µM): 0.188
- relative viability ([2]; first compound 0.2 µM): 0.143
- relative viability ([2]; first compound 0.6325 µM): 0.166
- relative viability ([2]; first compound 2 µM): 0.157

Cell Line: NCI-H522
- relative viability ([4]; first compound 0.253 µM): 0.856
- relative viability ([4]; first compound 0.8 µM): 0.842
- relative viability ([4]; first compound 2.53 µM): 0.974
- relative viability ([4]; first compound 8 µM): 0.938
- relative viability ([1]; first compound 0.253 µM): 1.2
- relative viability ([1]; first compound 0.8 µM): 0.989
- relative viability ([1]; first compound 2.53 µM): 1.15
- relative viability ([1]; first compound 8 µM): 1.22
- relative viability ([2]; first compound 0.02 µM): 0.594
- relative viability ([2]; first compound 0.06325 µM): 0.619
- relative viability ([2]; first compound 0.2 µM): 0.639
- relative viability ([2]; first compound 0.6325 µM): 0.578
- relative viability ([2]; first compound 2 µM): 0.72

Cell Line: NCI-H1299
- relative viability ([3]; first compound 0.02 µM): 1.05
- relative viability ([3]; first compound 0.06325 µM): 1
- relative viability ([3]; first compound 0.2 µM): 1.01
- relative viability ([3]; first compound 0.6325 µM): 0.965
- relative viability ([3]; first compound 2 µM): 0.893
